# US9616140B2, “Fluorescent phospholipid ether compounds, compositions, and methods of use” (Cellectar, Inc., priority 2009, dated 2017)
# Columns and labels:
# [1] = test system: glioblastoma cells (U87MG); experiment: Incubation of glioblastoma cells with CLR1501 and co-staining; type: cell-based; details: 48 hours
# Procedure: The following co-stained dyes were used: Hoechst 33342 (1 μg/mL) (nucleus; blue color), Mitotracker (25 nM) (mitochondria, red color) and Blue-White DPX (100 nM) (Endoplasmic Reticulum (ER), blue color) were diluted in PBS and added to the cells for 15 minutes. The cells were washed with PBS and imaged with Bio-Rad Radiance 2100 MP Rainbow.
# [2] = test system: Caki-2 (clear cell carcinoma) cells; experiment: Intensity of signal emitted by CLR1501, confocal microscopy; type: cell-based; details: 5 μM CLR1501, 24 hours
# Procedure: (§1) Similar experiments were performed on several other cancerous cell lines: colorectal adenocarcinoma, uterine carcinoma, pancreatic carcinoma, ovarian adenocarcinoma, glioblastoma, clear cell carcinoma, and prostate adenocarcinoma. For comparison reasons, normal fibroblast cells were incubated with CLR1501.
# (§2) Briefly, cells were plated overnight in micro slides VI (Ibidi, Verona, Wis.). The next day the cells were incubated with 5 μM of CLR1501 for 24 hours at 37° C. The cells were washed with PBS before the images were taken. The images were obtained using Nikon A1R confocal microscope. The length of exposure and intensity of the laser were similar among samples. CLR1501 was obtained using Alexa Fluor 488 filters (488 nm excitation-520 nm emission wavelength).
# (§3) Table 1 illustrates intensity of signal emitted by CLR1501 in cancerous cell lines versus normal cells.
# [3] = test system: Panc-1 (pancreatic carcinoma) cells; experiment: as above; type: cell-based; details: 5 μM CLR1501, 24 hours
# Procedure: as §1, §2, §3
# [4] = test system: NFA (normal fibroblast cells); experiment: as above; type: cell-based; details: 5 μM CLR1501, 24 hours
# Procedure: as §1, §2, §3
# [5] = test system: PC3 (prostate adenocarcinoma) cells; experiment: as above; type: cell-based; details: 5 μM CLR1501, 24 hours
# Procedure: as §1, §2, §3
# [6] = test system: Ovcar-3 (ovarian adenocarcinoma) cells; experiment: as above; type: cell-based; details: 5 μM CLR1501, 24 hours
# Procedure: as §1, §2, §3
# [7] = test system: NFA cells; experiment: Co-culture NFA/Caki-2, co-staining with nucleus stain and lysosome marker; type: cell-based; details: co-culture with Caki-2, 5 μM, 24 hours
# Procedure: (§4) Briefly, NFA and Caki-2 cell lines were co-cultured overnight on micro slide VI (Ibidi, Verona, Wis.). The next day, the cells were incubated with 5 μM of CLR1501 for 24 hours at 37° C. in complete media. The next day after washing with PBS, the cells were co-stained with nucleus stain (Hoechst 33342) and lysosome marker (Lyso-tracker), (Invitrogen, Carlsbad, Calif.). The cells were observed using Nikon A1R confocal microscope. CLR1501 was excited and detected using Alexa-Fluor 488 filter while nucleus stain and lysosome stain were excited and detected using DAPI and Texas-Red filter, respectively.
# [8] = test system: Caki-2 cells; experiment: as above; type: cell-based; details: 5 μM, 24 hours
# Procedure: as §4
# [9] = test system: normal skin (704sk) cells; experiment: Distribution of CLR1501 in normal skin cells; type: cell-based; details: 7.5 μM, 24 hours
# Procedure: (§5) To study the distribution of CLR1501 in cancer skin cells versus normal skin cells, CLR1501 was introduced into skin melanoma (A375) and normal skin (704sk) cells, purchased from ATCC. Both cells were maintained at 37° C. in DMEM media supplemented with 10% FBS and 5% CO2. Before imaging, the cells were removed from flasks with 0.25% trypsin and were allowed to grow overnight on the slides (Ibidi, microslides VI flat, Catalog No: 80626). The next day, the media was gently replaced with Phosphate Buffered Saline (PBS) and the cells were incubated with 7.5 μM of CLR1501 on DMEM media for 24 hours. CRL1501 was formulated with 0.4% of Polysorbate 20, 2% of ethanol and saline. After washing thoroughly with PBS, the cells were imaged using Bio-Rad Radiance 2100 MP Rainbow with 1 second exposure time.
# [10] = test system: Panc-1 cells (human pancreatic carcinoma); experiment: Retention of CLR1501 in pre-incubated Panc-1 cells inoculated into athymic nude mouse; type: in vivo; details: Panc-1 cells incubated 4 hours, then inoculated
# Procedure: FIG. 10 depicts tumor co-localization of CLR1501 in athymic nude mouse. […] The mouse was inoculated with 1×10^6 Panc-1 cells (human pancreatic carcinoma) which were incubated with CLR1501 or Kodak X-Sight 761 or both CLR1501 and Kodak X-Sight 761 for 4 hours. The cells were harvested and inoculated in different spots. The signals from each dye were obtained using Kodak in vivo imaging system (Carestream Health, Woodbridge, Conn.). CLR1501 was excited at 480 and emitted at 520 nm while the Kodak X-Sight was excited at 750 and emitted at 830 nm.
# [11] = test system: PC3 cells; experiment: Co-culture NFA/PC3, co-staining with nucleus stain and mitochondria marker; type: cell-based; details: 5 μM, 24 hours
# Procedure: as §4, with “and PC3” for “and Caki-2”, “and mitochondria” for “and lysosome”, “marker (Mitotracker),” for “marker (Lyso-tracker),”, “488 filter,” for “488 filter”, “DAPI filter” for “DAPI”
# [12] = test system: NFA cells; experiment: as above; type: cell-based; details: NFA (normal), 5 μM, 24 hours
# Procedure: as §4, with “and PC3” for “and Caki-2”, “and mitochondria” for “and lysosome”, “marker (Mitotracker),” for “marker (Lyso-tracker),”, “488 filter,” for “488 filter”, “DAPI filter” for “DAPI”
# [13] = test system: tumor cell lines (HCT-116, MES SA/DX-5, Mia Paca-2, Panc-1, Ovcar-3, U-87MG, Caki-2, PC3); experiment: Uptake of CLR1501 in cancerous cell lines versus normal cells; type: cell-based
# Procedure: as §1, §2
# [14] = test system: skin melanoma (A375) cells; experiment: Distribution of CLR1501 in cancer skin cells; type: cell-based
# Procedure: as §5, with “The next day, the media was gently replaced with Phosphate Buffered Saline (PBS) and the cells were incubated with 7.5 μM of CLR1501 on DMEM media for 24 hours.” left out
# [15] = test system: Panc-1 (pancreatic carcinoma) tumors; experiment: In vivo fluorescence imaging of CLR1501 distribution in Panc-1 tumor-bearing athymic nude mice; parameters: species or system mouse
# Procedure: Athymic nude mice (Hsd: Athymic Nude-Fox1^nu), inoculated with Panc-1 (Pancreatic carcinoma), were injected with 150 μL of 6 mg/mL CLR1501 formulated in 0.4% Polysorbate 20, 2% ethanol and saline 24 hour and 96 hours prior to imaging. The fluorescence images were obtained using a Kodak In-Vivo Multispectral System FX. The system provides multispectral tuning of excitation light which is able to separate signals from the dye and from the body autofluorescence. Mice were anesthetized by inhalation of isofluorane. The dyes were excited at 570 nm. […] The mouse was inoculated with 1×10^6 Panc-1 cells (human pancreatic carcinoma). […] CLR1501 was excited at 480 and emitted at 520 nm. The intensity was monitored at 24 and 96 hours using Kodak in vivo imaging system (Carestream Health, Woodbridge, Conn.).
# [16] = test system: xenograft and spontaneous primary and metastatic human and rodent tumor models; details: cited from earlier work
# [17] = injected 96 hours prior to imaging
smiles,measurement,setting,value
"C[N+](C)(C)CCOP(=O)([O-])OCCCCCCCCCCCCCCCCCCc1ccc(C2=C3C=CC=[N+]3[B-](F)(F)n3cccc32)cc1 [CLR1501, 18-[p-(4,4-difluoro-4-bora-3a,4a-diaza-s-indacene-8-yl)-phenyl]-octadecyl phosphocholine]",Site of accumulation in cells,[1],mostly accumulated in cytoplasm of the cells
same,Co-localization with organelles,"[1]; Mitotracker, Blue-White DPX",co-localized with mitochondria and ER
same,Relative intensity to normal cells,[2],10.11
same,Average grey intensity,[2]; 37° C.,151.56
same,Relative intensity to normal cells,[3],9.58
same,Average grey intensity,[3]; 37° C.,143.65
same,Relative intensity to normal cells,[4],1
same,Average grey intensity,[4]; 37° C.,14.99
same,Relative intensity to normal cells,[5],12.01
same,Average grey intensity,[5]; 37° C.,180.04
same,Relative intensity to normal cells,[6],6.2
same,Average grey intensity,[6]; 37° C.,92.86
same,Co-localization with nucleus,[7]; NFA (normal),not co-localized with nucleus
same,Co-localization with lysosome,[7]; NFA,minimally with NFA
same,Co-localization with nucleus,[8]; Caki-2 (tumor),not co-localized with nucleus
same,Co-localization with lysosome,[8]; Caki-2,co-localized with lysosome
same,Cellular distribution,[9],transported to the lysosomes where it was degraded
same,Retention in cancer cells after inoculation,[10],continues to be retained in these cells after in vivo subcutaneous injection
same,Co-localization with nucleus,[11]; PC3 (tumor),not co-localized with nucleus
same,Co-localization with mitochondria,[11]; PC3,co-localized with mitochondria
same,Co-localization with nucleus,[12],not co-localized with nucleus
same,Uptake in cancerous cell lines,"[13]; FIGS. 2c-2i and 2k-2l, 5 μM, 24 hours",significant uptake
same,Penetration into the nucleus,[13]; the in vitro experiments overall,does not penetrate inside of the nucleus
same,Uptake by tumor cells relative to normal fibroblast cells,[13]; tumor cells of Table 1 vs NFA,6-12 times
same,Cellular distribution,"[14]; 7.5 μM, 24 hours",internalization of CLR1501 into numerous fluorescent vesicles that are scattered throughout the cytoplasm
same,Early time uptake profile,[14]; half an hour after incubation,signals are thin and limited at the plasma membrane
same,Early time uptake profile,[14]; one hour after incubation,signals are not concentrated solely in the plasma membrane: intracellular structures are also observed
same,Tumor co-localization over time,"[15]; 1 mg in 0.15 mL, monitored at 24 and 96 hours, de-skinned","accumulated in tumor site, while it cleared out from the rest of normal organs"
same,Distribution of fluorescence signal in vivo,"[15]; injected 150 μL of 6 mg/mL, 24 and 96 hours prior to imaging",found mostly in the tumors
same,Accumulation in the tumor,[15]; [17],more pronounced
same,Retention of the dye in other tissues,[15]; [17],tremendously reduced
"C[N+](C)(C)CCOP(=O)([O-])OCCCCCCCCCCCCCCCCCCc1ccc(I)cc1 [NM404, 18-p-(iodophenyl)-octadecyl phosphocholine]",Duration of selective retention in tumors,[16]; mouse models,> 80 days
same,Tumor models showing selective retention,[16]; xenograft and spontaneous primary and metastatic tumor models,37 out of 37
